Results as given in EPA's ToxRefDB 2.
One block for each compound: values may come before it.

Tests used:
rat [1] = conditions: Combined chronic toxicity/carcinogenicity; wistar; Oral; Feed; dose end: 24 month; group: systemic; systemic / organ weight / spleen / absolute + systemic / organ weight / spleen / relative to body weight + systemic / pathology microscopic…
mouse [2] = conditions: Carcinogenicity; other; Oral; Feed; dose end: 24 month; group: systemic; systemic / hematology / anemia / anemia - nos + systemic / organ weight / liver / absolute + systemic / organ weight / liver / relative to …
rat [3] = conditions: Subchronic oral toxicity in rodents, other, Feed, dose end: 6 month, group: systemic
rat [4] = conditions: Multigenerational reproductive toxicity study, sprague dawley, Oral, Feed, dose end: 2 generation
mouse [5] = conditions: Subchronic oral toxicity in rodents, b6c3f1, Gavage/Intubation, dose end: 13 week, group: systemic
rat [6] = conditions: Subchronic oral toxicity in rodents, fischer, Gavage/Intubation, dose end: 13 week, group: systemic
mouse [7] = conditions: Combined chronic toxicity/carcinogenicity, b6c3f1, Oral, Gavage/Intubation, dose end: 2 year, group: systemic
rat [8] = conditions: Combined chronic toxicity/carcinogenicity; fischer; Oral; Gavage/Intubation; dose end: 2 year; group: systemic; systemic / in life observation / body weight / body weight
rat [9] = conditions: Combined chronic toxicity/carcinogenicity, fischer, Oral, Gavage/Intubation, dose end: 103 week, group: systemic
mouse [10] = conditions: Combined chronic toxicity/carcinogenicity, b6c3f1, Oral, Gavage/Intubation, dose end: 103 week, group: systemic
rat [11] = conditions: Subchronic oral toxicity in rodents, fischer, Gavage/Intubation, dose end: 13 week, group: systemic; remark: listed apart in the source
mouse [12] = conditions: Subchronic oral toxicity in rodents, b6c3f1, Gavage/Intubation, dose end: 13 week, group: systemic, systemic / in life observation / clinical signs / fur (altered appearance) + systemic / in life observation / clinical signs / reduced …
rat [13] = conditions: Sub-acute repeat dose toxicity; sprague dawley; Oral; Gavage/Intubation; dose end: 16 day; group: systemic; systemic / organ weight / liver / absolute + systemic / organ weight / liver / relative to body weight + systemic / organ weight / liver / …
rat [14] = conditions: Other (NonGuideline or Guideline Not Listed), sprague dawley, Oral, Gavage/Intubation, dose end: 7 day, group: cannot be grouped
rat [15] = conditions: Sub-acute repeat dose toxicity; sprague dawley; Oral; Gavage/Intubation; dose end: 6 day; group: systemic; systemic / clinical chemistry / alanine aminotransferase (alt/sgpt) / alanine aminotransferase (alt/sgpt) + systemic / clinical chemistry / …
primate = conditions: Other (NonGuideline or Guideline Not Listed); rhesus; Oral; Gavage/Intubation; dose end: 8 day; group: cannot be grouped; systemic / clinical chemistry / alanine aminotransferase (alt/sgpt) / alanine aminotransferase (alt/sgpt) + systemic / clinical chemistry / …
rat [16] = conditions: Other (NonGuideline or Guideline Not Listed); sprague dawley; Oral; Gavage/Intubation; dose end: 5 day; group: cannot be grouped; systemic / clinical chemistry / alanine aminotransferase (alt/sgpt) / alanine aminotransferase (alt/sgpt) + systemic / clinical chemistry / …
[17] = systemic / pathology gross / urinary bladder / lesion(s) (nos) + systemic / pathology microscopic / blood vessel / [other] + systemic / …
[18] = group: offspring, systemic / in life observation / body weight / offspring (pup) weight
[19] = group: parental, systemic / in life observation / body weight / body weight + systemic / in life observation / body weight / body weight gain + systemic / in…
[20] = systemic / pathology microscopic / kidney / nephropathy
[21] = systemic / in life observation / body weight / body weight
[22] = systemic / in life observation / body weight / body weight + systemic / in life observation / clinical signs / alopecia + systemic / in life…
[23] = systemic / in life observation / body weight / body weight + systemic / pathology microscopic / kidney / nephropathy
[24] = systemic / in life observation / body weight / body weight + systemic / pathology microscopic / kidney / nephropathy + systemic / pathology …
[25] = systemic / pathology microscopic / kidney / hyperplasia + systemic / pathology microscopic / kidney / mineralization
[26] = systemic / pathology microscopic / kidney / hyperplasia + systemic / pathology microscopic / kidney / mineralization + systemic / pathology …
[27] = systemic / pathology microscopic / liver / cytomegaly + systemic / pathology microscopic / liver / multinucleated
[28] = systemic / in life observation / body weight / body weight + systemic / in life observation / clinical signs / fur (altered appearance) + …
[29] = systemic / pathology microscopic / kidney / casts + systemic / pathology microscopic / kidney / regeneration
[30] = systemic / clinical chemistry / alkaline phosphatase (alp/alk) / alkaline phosphatase (alp/alk) + systemic / clinical chemistry / glucose / …
[31] = systemic / clinical chemistry / glucose / glucose + systemic / pathology gross / liver / discolored + systemic / pathology microscopic / …

Compound: CN(C)C(=O)Nc1ccc(Cl)c(Cl)c1 [Diuron]
LEL (rat [1]): 1 mg/kg/day
LOAEL (rat [1]): 1 mg/kg/day
NEL (rat [1]): < 1 mg/kg/day
NOAEL (rat [1]): < 1 mg/kg/day
LEL (mouse [2]): 640 mg/kg/day
LOAEL (mouse [2]): 640 mg/kg/day
NEL (mouse [2]): 50.8 mg/kg/day
NOAEL (mouse [2]): 50.8 mg/kg/day
LEL (rat [3]; [17]): 0.3 mg/kg/day
NEL (rat [3]; [17]): < 0.3 mg/kg/day
NOAEL (rat [3]; [17]): 0.7 mg/kg/day
LOAEL (rat [3]; systemic / pathology microscopic / spleen / pigmentation): 1.6 mg/kg/day
LEL (rat [4]; [18]): 139 mg/kg/day
LOAEL (rat [4]; [18]): 139 mg/kg/day
NEL (rat [4]; [18]): 18.9 mg/kg/day
NOAEL (rat [4]; [18]): 18.9 mg/kg/day
LEL (rat [4]; [19]): 101 mg/kg/day
LOAEL (rat [4]; [19]): 101 mg/kg/day
NEL (rat [4]; [19]): 14.8 mg/kg/day
NOAEL (rat [4]; [19]): 14.8 mg/kg/day

Compound: CCCCCCc1ccc(O)cc1O [4-Hexylresorcinol]
LEL (mouse [5]; [20]): 125 mg/kg/day
LOAEL (mouse [5]; [20]): 250 mg/kg/day
NEL (mouse [5]; systemic / pathology microscopic / kidney / nephropathy + systemic / in life observation / body weight / body weight + systemic / in life …): 62.5 mg/kg/day
NOAEL (mouse [5]; systemic / pathology microscopic / kidney / nephropathy + systemic / in life observation / mortality / mortality): 125 mg/kg/day
LEL (rat [6]; [21]): 125 mg/kg/day
LOAEL (rat [6]; [21]): 125 mg/kg/day
NEL (rat [6]; [22]): 62.5 mg/kg/day
NOAEL (rat [6]; [22]): 62.5 mg/kg/day
LOAEL (mouse [7]; [23]): 62.5 mg/kg/day
NOAEL (mouse [7]; [23]): < 62.5 mg/kg/day
LEL (mouse [7]; [24]): 62.5 mg/kg/day
NEL (mouse [7]; [24]): < 62.5 mg/kg/day
LEL (rat [8]): 125 mg/kg/day
LOAEL (rat [8]): 125 mg/kg/day
NEL (rat [8]): 62.5 mg/kg/day
NOAEL (rat [8]): 62.5 mg/kg/day

Compound: C=C(C)[C@H]1CC=C(C)CC1 [D-Limonene]
LOAEL (rat [9]; [25]): 75 mg/kg/day
NOAEL (rat [9]; [25]): < 75 mg/kg/day
LEL (rat [9]; [26]): 75 mg/kg/day
NEL (rat [9]; [26]): < 75 mg/kg/day
LOAEL (mouse [10]; [21]): 1000 mg/kg/day
NOAEL (mouse [10]; [21]): 500 mg/kg/day
LEL (mouse [10]; [27]): 500 mg/kg/day
NEL (mouse [10]; [27]): 250 mg/kg/day
LOAEL (rat [11]; [28]): > 2400 mg/kg/day
NOAEL (rat [11]; [28]): ≥ 2400 mg/kg/day
LEL (rat [11]; [29]): 150 mg/kg/day
NEL (rat [11]; [29]): < 150 mg/kg/day
LEL (mouse [12]): 1000 mg/kg/day
LOAEL (mouse [12]): > 2000 mg/kg/day
NEL (mouse [12]): 500 mg/kg/day
NOAEL (mouse [12]): ≥ 2000 mg/kg/day

LEL (rat [14]; [31]): 100 mg/kg/day
NEL (rat [14]; [31]): < 100 mg/kg/day
Compound: CCn1nc(Cc2ccccc2)cc1C1CCN(C[C@H]2C[C@H](N(C)[C@@H](C(=O)O)C(C)C)C[C@@H]2c2cccc(F)c2)CC1 [MK-578]
LEL (rat [13]): 100 mg/kg/day
LOAEL (rat [13]): > 100 mg/kg/day
NEL (rat [13]): 30 mg/kg/day
NOAEL (rat [13]): ≥ 100 mg/kg/day
LOAEL (rat [14]; [30]): > 250 mg/kg/day
NOAEL (rat [14]; [30]): ≥ 250 mg/kg/day
LEL (rat [15]): 500 mg/kg/day
LOAEL (rat [15]): > 500 mg/kg/day
NEL (rat [15]): < 500 mg/kg/day
NOAEL (rat [15]): ≥ 500 mg/kg/day
LEL (primate): 200 mg/kg/day
LOAEL (primate): > 200 mg/kg/day
NEL (primate): < 200 mg/kg/day
NOAEL (primate): ≥ 200 mg/kg/day
LEL (rat [16]): 250 mg/kg/day
LOAEL (rat [16]): > 500 mg/kg/day
NEL (rat [16]): < 250 mg/kg/day
NOAEL (rat [16]): ≥ 500 mg/kg/day
